Experimental findings from PubChem BioAssay (NCI) are described below.

Several values for one entry are separate records, joined by “and”; a condition that tells them apart may be missing. Equal entries are not always repeated.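 How tested: cells in 96-well plates exposed to compound for 48 hours at five concentrations. GI50 is the concentration that inhibits growth by half. TGI: total growth inhibition.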

Test systems include MALME-3M melanoma; NCI-H23 lung; SF-268 CNS; EKVX NSCLC; LOX IMVI melanoma; IGROV1 ovarian; OVCAR-8 ovarian.
Holding throughout (assay): NCI anticancer screen, dose series, 48 h

For the molecule `CC[n+]1c(/C=C/c2ccc(N3CCCC3)cc2)cccc1/C=C/c1ccc(N2CCCC2)cc1`, the GI50 was 0.293 µM in the assay on MALME-3M melanoma; 0.0743 µM and 0.0876 µM in the assay on NCI-H23 lung; 0.449 µM in the assay on SF-268 CNS; 0.0832 µM with EKVX NSCLC; 0.22 µM and 0.145 µM in the assay with LOX IMVI melanoma; 0.532 µM in the assay on IGROV1 ovarian. In addition, the GI50 in the assay with OVCAR-8 ovarian was 0.248 µM and 0.124 µM. Besides, the TGI is 2.13 µM in the assay on MALME-3M melanoma; 0.982 µM and 1.41 µM in the assay with NCI-H23 lung; 1.58 µM in the assay on SF-268 CNS; 2.08 µM with EKVX NSCLC; 1.62 µM and 1.45 µM in the assay on LOX IMVI melanoma; 2.4 µM in the assay with IGROV1 ovarian. Moreover, the TGI in the assay with OVCAR-8 ovarian is 1.61 µM and 0.953 µM.

On to `Clc1ccc(Nc2ncnc3ccccc23)cc1`, for which the GI50 was 33.9 µM in the assay with MALME-3M melanoma; 74.6 µM in the assay on NCI-H23 lung; 38.7 µM in the assay with SF-268 CNS; 10.1 µM in the assay with EKVX NSCLC; 46.8 µM in the assay with LOX IMVI melanoma; 12.9 µM in the assay with IGROV1 ovarian. The GI50 in the assay on OVCAR-8 ovarian is 59.2 µM. The TGI with MALME-3M melanoma, in the assay with NCI-H23 lung, in the assay on SF-268 CNS, with EKVX NSCLC, with LOX IMVI melanoma and in the assay with IGROV1 ovarian was more than 100 µM throughout. In the assay on OVCAR-8 ovarian, this molecule came in with a TGI of more than 100 µM.

On to `O=C1NC(=N[C@@H]2C[C@H]2c2ccccc2)S/C1=C\c1ccc2ncccc2c1`, for which the GI50 in the assay on MALME-3M melanoma is 2.62 µM; with NCI-H23 lung, 3.87 µM; with SF-268 CNS it was 2.25 µM; with LOX IMVI melanoma it was 1.22 µM; with IGROV1 ovarian, 2.66 µM; with OVCAR-8 ovarian, 2.05 µM. Moreover, the TGI in the assay on MALME-3M melanoma was found to be 12.1 µM; with NCI-H23 lung it was 20.8 µM; in the assay on SF-268 CNS it was 8.02 µM; with LOX IMVI melanoma, 12.1 µM; in the assay with IGROV1 ovarian it was 11.9 µM; in the assay on OVCAR-8 ovarian, 9.69 µM.

`COc1ccc(-c2nc(Nc3ccc(F)cc3)nc(Nc3ccc4c(c3)nc(C)n4Cc3ccccc3)n2)cc1`: the GI50 is 4.32 µM with MALME-3M melanoma; 6.54 µM with NCI-H23 lung; 7.25 µM in the assay with SF-268 CNS; 3.98 µM with LOX IMVI melanoma; 5.41 µM in the assay on IGROV1 ovarian; 3.45 µM in the assay with OVCAR-8 ovarian. Also, the TGI in the assay on MALME-3M melanoma was more than 100 µM; in the assay on NCI-H23 lung, more than 100 µM; with SF-268 CNS, more than 100 µM; with LOX IMVI melanoma it was 57.6 µM; in the assay with IGROV1 ovarian it was more than 100 µM; with OVCAR-8 ovarian, more than 100 µM.

`N#CC1(C#N)C2C=CC(C3CC=CC32)C1(C#N)C#N` (stereo unspecified): the GI50 with MALME-3M melanoma was 6.13 µM. In addition, the TGI in the assay on MALME-3M melanoma is 6.16 µM and 13.1 µM; with NCI-H23 lung it was 19.8 µM; in the assay on SF-268 CNS, 22.6 µM; in the assay on EKVX NSCLC, 24 µM; in the assay with LOX IMVI melanoma, 18.6 µM; in the assay with IGROV1 ovarian, 16.5 µM.

In the case of `CC(=O)NS(=O)(=O)c1ccc(-n2nc(-c3ccccc3)cc2-c2cc(O)ccc2O)cc1`, the GI50 with NCI-H23 lung, in the assay on SF-268 CNS, in the assay on EKVX NSCLC, in the assay with LOX IMVI melanoma, with IGROV1 ovarian and in the assay with OVCAR-8 ovarian was more than 100 µM in each case. Besides, the TGI in the assay on NCI-H23 lung, with SF-268 CNS, in the assay on EKVX NSCLC, with LOX IMVI melanoma, in the assay on IGROV1 ovarian and with OVCAR-8 ovarian was more than 100 µM throughout.

Take `O=C(NCCNc1nccc(-c2c(-c3ccc(F)cc3)nc3sccn23)n1)Nc1cccc(C(F)(F)F)c1`: the GI50 in the assay with NCI-H23 lung is 8.73 µM; in the assay on SF-268 CNS, 12.2 µM; in the assay on EKVX NSCLC it was 4.69 µM; in the assay on LOX IMVI melanoma, 5.36 µM; with IGROV1 ovarian, 4.59 µM; in the assay with OVCAR-8 ovarian, 3.76 µM. Further, the TGI in the assay with NCI-H23 lung worked out at 26.4 µM; with SF-268 CNS it was 41.1 µM; in the assay on EKVX NSCLC, 30.6 µM; in the assay with LOX IMVI melanoma, 20.7 µM; in the assay with IGROV1 ovarian, 20 µM; in the assay with OVCAR-8 ovarian, 27.4 µM.

As for `O=C([CH-]C(=O)c1ccccc1)c1ccccc1.O=C([CH-]C(=O)c1ccccc1)c1ccccc1.[CH2-]CCC.[CH2-]CCC.[Sn+4]`, the GI50 in the assay on MALME-3M melanoma is 0.271 µM; with SF-268 CNS, 0.458 µM; with EKVX NSCLC, 1.17 µM; with LOX IMVI melanoma it was 0.405 µM; in the assay on IGROV1 ovarian, 1.21 µM; in the assay with OVCAR-8 ovarian, 0.939 µM. Further, the TGI in the assay on MALME-3M melanoma is 1.35 µM; in the assay on SF-268 CNS, 1.86 µM; in the assay with EKVX NSCLC, 2.7 µM; with LOX IMVI melanoma, 1.59 µM; in the assay on IGROV1 ovarian, 2.79 µM; with OVCAR-8 ovarian, 2.46 µM.

Take `O=C(O)c1ccc(NCn2nc(-c3ccccc3O)oc2=S)cc1O`: the GI50 in the assay with NCI-H23 lung was more than 100 µM; in the assay with SF-268 CNS, more than 100 µM; with EKVX NSCLC, more than 100 µM; in the assay with LOX IMVI melanoma it was 25.4 µM; in the assay on IGROV1 ovarian, more than 100 µM; with OVCAR-8 ovarian, more than 100 µM. Also, the TGI with NCI-H23 lung, in the assay on SF-268 CNS, with EKVX NSCLC, with LOX IMVI melanoma, in the assay with IGROV1 ovarian and in the assay on OVCAR-8 ovarian was more than 100 µM in each case.

Turning to `COc1ccc(/C=C/C(=O)c2ccc(B(O)O)cc2)cc1O`, the GI50 is 32.3 µM in the assay on MALME-3M melanoma; 21 µM in the assay with NCI-H23 lung; 19.9 µM in the assay on SF-268 CNS; 4.66 µM with LOX IMVI melanoma; 12.5 µM with IGROV1 ovarian; 28.3 µM in the assay with OVCAR-8 ovarian. The TGI with MALME-3M melanoma is more than 100 µM; in the assay with NCI-H23 lung, 69.4 µM; with SF-268 CNS it was 78.8 µM; in the assay on LOX IMVI melanoma, 19.1 µM; in the assay with IGROV1 ovarian, more than 54.4 µM; in the assay on OVCAR-8 ovarian it was more than 77.9 µM.

For the molecule `CC(=O)N[C@@H](Cc1ccc(OP(=O)(O)O)cc1)C(=O)N[C@H]1CCC(=O)N2CCC[C@@H](C(=O)NCc3cccc4ccccc34)N2C1=O`, the GI50 in the assay with MALME-3M melanoma, with NCI-H23 lung, in the assay with SF-268 CNS, with LOX IMVI melanoma, in the assay on IGROV1 ovarian and with OVCAR-8 ovarian was more than 25 µM each time. In addition, the TGI with MALME-3M melanoma, in the assay with NCI-H23 lung, with SF-268 CNS, in the assay on LOX IMVI melanoma, with IGROV1 ovarian and in the assay on OVCAR-8 ovarian was more than 25 µM each time.
